From patent publication US20060210480A1, “Treatment of reduction of dysphagia” (priority 2005, published 2006)

Key:
[1] = test system: human cortical swallowing pathways; experiment: Ten-minute liquid swallowing task with taste solutions; TMS-evoked cortico-pharyngeal motor responses (Example 1); type: in vivo; conditions: 8 healthy adult volunteers; 0.5 mM quinine hydrochloride swallowing task; immediately and throughout 60 minutes post-intervention; p<0.01
Method: An assessment was made as to the effects of different taste stimuli on human cortical swallowing pathways. The assessment was made upon 8 healthy adult volunteers (seven of which were male, the minimum age of the volunteers being 29 years).
Each volunteer performed a ten-minute, liquid swallowing task using three (previously titrated) different taste solutions. The three solutions utilised were sterile water (neutral taste), 10% glucose (sweet/pleasant taste), and 0.5 mM quinine hydrochloride (bitter/aversive taste). Solutions were randomised to separate studies at least 24 hours apart.
Transcranial magnetic stimulation was performed over the swallowing motor cortex, before and up to one hour after each swallow task in accordance with established protocols. Briefly, Single pulse (monophasic) transcranial stimulation (sTMS) of the cerebral cortex was achieved using a magnetic stimulator (a Magstim 200, manufactured by MAGSTIM Company Limited, Whitland, Wales) connected to a 70 mm outer diameter figure-of-8 coil (maximal output of 2.2 Tesla (T)), held in an A-P (Anterior-Posterior) direction, at an angle of 45° tangential to the scalp. […]
Cortico-pharyngeal motor responses were recorded from a swallowed intra-luminal catheter as a measure of cortical excitability. […]

swallowing response [2] = experiment: Ten-minute infusion of taste stimuli onto the taste receptors of the tongue; pharyngeal MEP (Example 2); type: in vivo, human; conditions: volunteers; ten minute infusion to tongue taste receptors; taken over a 60 minute period from administration
Description: Confirmation of the suitability of […] tasting substances such as the alkaloid quinine to stimulate the swallowing response and thereby aid treatment or reduction of dysphagia was obtained from a second study measuring swallowing reflexes of volunteers receiving neutral, pleasant or aversive taste stimuli. Volunteers receive a ten minute infusion of neutral (water), pleasant (glucose) or aversive (quinine) taste stimuli administered such that they stimulated the taste receptors of the tongue.

swallowing response [3] = experiment: Ten-minute infusion of taste stimuli directly into the stomach; pharyngeal MEP (Example 3); type: in vivo, human; conditions: volunteers; ten minute infusion administered directly to the stomach
Description: The ability of substances such as the […] tasting alkaloid quinine to stimulate the swallowing response when administered into the portion of the upper digestive tract below the mouth was in a third study measuring swallowing reflexes of volunteers receiving neutral, pleasant or aversive taste stimuli. Volunteers receive a ten minute infusion of neutral (water), pleasant (glucose) or aversive (quinine) taste stimuli administered directly into the volunteer's stomach.

`C=C[C@H]1C[N@@]2CC[C@H]1C[C@H]2[C@H](O)c1ccnc2ccc(OC)cc12` [quinine] was tested, and the “maximum percentage change from base line in pharyngeal motor evoked potential (MEP) amplitude” value [1] was 48±11%, the “increase in the amplitude of MEP compared with neutral tasting water or pleasant tasting glucose” value (swallowing response [2]) was “greater increase” and the “increase in the swallowing response (measured by MEP)” value (swallowing response [3]) was 39%.
